# In patent publication US20220000911A1, “COMBINATION OF GOLD COMPLEXES WITH OLAPARIB OR OTHER PARP1/2 INHIBITORS FOR USE IN THE TREATMENT OF CANCER RESISTANT TO SAID PARP1/2 INHIBITORS” (Varsity Pharmaceuticals Limited, priority 2020, published 2022):
# Key:
# [1] = system: wildtype A2780 ovarian cancer cells; experiment: CellTiter Glo proliferation inhibition, wild-type A2780 cells; format: cell-based
# Protocol: The A2780 cell line is an ovarian cancer cell line that was established from an ovarian endometroid adenocarcinoma tumour. […] It is commonly used as a model to observe the effects of, and test the potency of various chemicals, methods of delivery and treatments for ovarian cancer. […] The cells were diluted with culture medium and 40 μL of cell suspension (1000 cells/well) was added into each well of a 384-well cell culture plate. The plate was covered with a lid and left at room temperature without shaking for 30 minutes. The plate was then transferred to an incubator at 37° C. and 5% CO2 and left overnight. Test compounds were dissolved at a concentration of 30 mM in DMSO to create a stock solution. 45 μL of the stock solution was transferred to a 384 pp-plate. […] The plate was then spun at room temperature at 1,000 RPM for 1 minute. 40 nL of the diluted compound was then transferred from the compound source plate into the cell plate. The cell plate was then covered with a lid and placed in an incubator at 37° C. and 5% CO2 and left for 120 hours. 72 hours after treatment with the compound detection was conducted as discussed below. CellTiter Glo® reagents were thawed and equilibrated to room temperature. The cell plate was then removed from the incubator and equilibrated at room temperature for 15 minutes. 30 μL of the CellTiter Glo® reagents were then added into each well (at 1:1 to culture medium). The contents was mixed for 2 minutes on an orbital shaker to induce cell lysis and then the plates were allowed to incubate at room temperature for 30 minutes. Luminescence was then measured on an Envision reader (Perkin Elmer). The inhibition activity was calculated using the following formula: […]
# [2] = system: olaparib resistant A2780 ovarian cancer cells; experiment: CellTiter Glo proliferation inhibition, olaparib resistant A2780 cells, single agents; format: cell-based
# Protocol: A2780 ovarian cancer cells (wild-type “WT”) were cultured in RPMI 1640 Medium with 10% Fetal Bovine Serum (FBS).
# To obtain cells resistant to olaparib, the cells were cultured in cell culture medium (RPMI 1640 Medium with 10% FBS) supplemented with 20 μM olaparib for one month in order to generate A2780 cells resistant to olaparib (“R”). After a month the cells were continuously cultured in the cell culture medium (RPMI 1640 Medium with 10% FBS) supplemented with 10 μM olaparib prior to use and for up to two months to maintain the resistance.
# The cells were harvested from a flask into cell culture medium (RPMI 1640 Medium with 10% FBS) and then counted. The cells were diluted with culture medium and 40 μL of cell suspension (1000 cells/well) was added into each well of a 384-well cell culture plate. The plate was covered with a lid and left at room temperature without shaking for 30 minutes. The plate was then transferred to an incubator at 37° C. and 5% CO2 and left overnight.
# Test compounds were dissolved at a concentration of 30 mM in DMSO to create a stock solution. 45 μL of the stock solution was transferred to a 384 pp-plate. […] The plate was then spun at room temperature at 1,000 RPM for 1 minute. 40 nL of the diluted compound was then transferred from the compound source plate into the cell plate. The cell plate was then covered with a lid and placed in an incubator at 37° C. and 5% CO2 and left for 120 hours. 72 hours after treatment with the compound detection was conducted as discussed below.
# CellTiter Glo® reagents were thawed and equilibrated to room temperature. The cell plate was then removed from the incubator and equilibrated at room temperature for 15 minutes. 30 μL of the CellTiter Glo® reagents were then added into each well (at 1:1 to culture medium). The contents was mixed for 2 minutes on an orbital shaker to induce cell lysis and then the plates were allowed to incubate at room temperature for 30 minutes. Luminescence was then measured on an Envision reader (Perkin Elmer).
# The inhibition activity was calculated using the following formula:
# Inhibition (%)=100×(Lumvehicle−Lumsample)/(Lumvehicle−Lumblank),
# where Lumvehicle is the luminescence of cells treated with 0.1% DMSO and Lumblank is cells in the culture medium.
# The IC50 was calculated by fitting the curve using Xlfit (v5.3.1.3), equation 201: […]
# [3] = concentration range 0.06 nM to 30,000 nM
smiles,measurement,setting,value
"NC(=O)c1cccc2cn(-c3ccc([C@@H]4CCCNC4)cc3)nc12 [Niraparib, niraparib]",IC50,"[1]; Homo sapiens, A2780",2.09 µM
same,inhibition at 60 pM,"[1]; Homo sapiens, wildtype A2780, test conc. 0.06 nM, read-out: Mean Inhibition (n = 3)",0.39%
same,inhibition at 0.00017 µM,"[1]; Homo sapiens, wildtype A2780, test conc. 0.17 nM, read-out: Mean Inhibition (n = 3)",-3.72%
same,inhibition at 0.00051 µM,"[1]; Homo sapiens, wildtype A2780, test conc. 0.51 nM, read-out: Mean Inhibition (n = 3)",-0.34%
same,inhibition at 0.00152 µM,"[1]; Homo sapiens, wildtype A2780, test conc. 1.52 nM, read-out: Mean Inhibition (n = 3)",0.03%
same,inhibition at 0.00457 µM,"[1]; Homo sapiens, wildtype A2780, test conc. 4.57 nM, read-out: Mean Inhibition (n = 3)",0.18%
same,inhibition at 0.01372 µM,"[1]; Homo sapiens, wildtype A2780, test conc. 13.72 nM, read-out: Mean Inhibition (n = 3)",0.97%
same,inhibition at 0.04115 µM,"[1]; Homo sapiens, wildtype A2780, test conc. 41.15 nM, read-out: Mean Inhibition (n = 3)",-0.46%
same,inhibition at 0.12346 µM,"[1]; Homo sapiens, wildtype A2780, test conc. 123.46 nM, read-out: Mean Inhibition (n = 3)",3.18%
same,inhibition at 0.37037 µM,"[1]; Homo sapiens, wildtype A2780, test conc. 370.37 nM, read-out: Mean Inhibition (n = 3)",12.3%
same,inhibition at 10 µM,"[1]; Homo sapiens, wildtype A2780, test conc. 10,000 nM, read-out: Mean Inhibition (n = 3)",66.2%
same,inhibition at 30 µM,"[1]; Homo sapiens, wildtype A2780, test conc. 30,000 nM, read-out: Mean Inhibition (n = 3)",73.3%
same,Maximum inhibition observed in wild-type A2780 cells,[1]; [3],75%
same,Mean Inhibition (n = 3),"[1]; wildtype A2780, test conc. 1,111.11 nM",25.03%
same,Mean Inhibition (n = 3),"[1]; wildtype A2780, test conc. 3,333.33 nM",48.63%
same,IC50,"[2]; Homo sapiens, A2780",17.3 µM
same,inhibition at 60 pM,"[2]; Homo sapiens, olaparib resistant A2780, test conc. 0.06 nM, read-out: Mean Inhibition (n = 3)",-1.98%
same,inhibition at 0.00017 µM,"[2]; Homo sapiens, olaparib resistant A2780, test conc. 0.17 nM, read-out: Mean Inhibition (n = 3)",0.32%
same,inhibition at 0.00051 µM,"[2]; Homo sapiens, olaparib resistant A2780, test conc. 0.51 nM, read-out: Mean Inhibition (n = 3)",-2.36%
same,inhibition at 0.00152 µM,"[2]; Homo sapiens, olaparib resistant A2780, test conc. 1.52 nM, read-out: Mean Inhibition (n = 3)",2.95%
same,inhibition at 0.00457 µM,"[2]; Homo sapiens, olaparib resistant A2780, test conc. 4.57 nM, read-out: Mean Inhibition (n = 3)",-0.19%
same,inhibition at 0.01372 µM,"[2]; Homo sapiens, olaparib resistant A2780, test conc. 13.72 nM, read-out: Mean Inhibition (n = 3)",-1.43%
same,inhibition at 0.04115 µM,"[2]; Homo sapiens, olaparib resistant A2780, test conc. 41.15 nM, read-out: Mean Inhibition (n = 3)",0.1%
same,inhibition at 0.12346 µM,"[2]; Homo sapiens, olaparib resistant A2780, test conc. 123.46 nM, read-out: Mean Inhibition (n = 3)",-0.8%
same,inhibition at 0.37037 µM,"[2]; Homo sapiens, olaparib resistant A2780, test conc. 370.37 nM, read-out: Mean Inhibition (n = 3)",-0.56%
same,inhibition at 10 µM,"[2]; Homo sapiens, olaparib resistant A2780, test conc. 10,000 nM, read-out: Mean Inhibition (n = 3)",18.9%
same,inhibition at 30 µM,"[2]; Homo sapiens, olaparib resistant A2780, test conc. 30,000 nM, read-out: Mean Inhibition (n = 3)",43.9%
same,Maximum inhibition observed in olaparib resistant A2780 cells,[2]; [3],47%
same,Mean Inhibition (n = 3),"[2]; olaparib resistant A2780, test conc. 1,111.11 nM",−1.37%
same,Mean Inhibition (n = 3),"[2]; olaparib resistant A2780, test conc. 3,333.33 nM",5.54%
same,Resistance of the olaparib resistant cells to other PARPis,[2]; olaparib resistant A2780 cells,resistant
